{"source": "patent US5616606A", "about": "“Oligopeptide antiretroviral agents” (priority 1995, dated 1997)", "key": {"SC-1 cells": {"system": "SC-1 cells", "test": "toxicity TD50 reported with the anti-MLV test", "details": "Table IV"}, "[1]": {"system": "Moloney murine leukemia virus (MLV)", "test": "anti-Moloney murine leukemia virus (MLV) plaque test", "format": "cell-based", "details": "anti-MLV plaque count"}, "poly(dA-dT)": {"system": "poly(dA-dT)", "test": "ethidium displacement assay, poly(dA-dT)", "details": "relative to ethidium 9.5 × 10^6 M^-1, average of repeat measurements"}, "calf thymus DNA": {"system": "calf thymus DNA", "test": "ethidium displacement assay, drug-DNA binding constant, calf thymus DNA", "details": "relative to ethidium 10^7 M^-1, average of repeat measurements"}, "HIV-1": {"system": "HIV-1", "details": "inactive, moderate or active"}, "2.2.15 cells": {"system": "2.2.15 cells", "test": "toxicity analysis, neutral red dye uptake in 2.2.15 cells", "details": "triplicate, ± standard deviation"}, "[2]": {"target": "Moloney Leukemia Virus reverse transcriptase (Moloney murine leukemia virus, UniProt P03355)", "test": "inhibition of MLV associated reverse transcriptase activity"}}}
{"smiles": "Cl.Cl.Cn1cc(NC(=O)c2nc(NC(=O)/C=C\\C(=O)Nc3cn(C)c(C(=O)Nc4cn(C)c(C(=O)NCCC(=N)N)n4)n3)cn2C)nc1C(=O)NCCC(=N)N", "note": "[Compound 39, Bis-Lexitropsin]", "values": [{"measurement": "Toxicity, TD50", "setting": "SC-1 cells", "value": "> 100.00", "unit": "ug/mL^-1"}, {"measurement": "Activity, MIC50", "setting": "[1]", "value": "> 100.00", "unit": "µg/mL"}]}
{"smiles": "Cn1cc(NC(=O)c2cc(NC(=O)CNC(=N)N)cn2C)cc1C(=O)NCCC(=N)N", "note": "[Compound 1, reference compound]", "values": [{"measurement": "Kapp", "setting": "poly(dA-dT)", "value": "9.4e+07", "unit": "M⁻¹"}, {"measurement": "DNA Binding Constant", "setting": "calf thymus DNA", "value": "1.9e+07", "unit": "M⁻¹"}]}
{"smiles": "Cl.Cl.Cn1cc(NC(=O)c2cc(NC(=O)CCC(=O)Nc3cc(C(=O)Nc4cc(C(=O)NCCC(=N)N)n(C)c4)n(C)c3)cn2C)cc1C(=O)NCCC(=N)N", "note": "[Compound 5]", "values": [{"measurement": "Anti-HIV-1 Activity (National Cancer Institute Designation)", "setting": "HIV-1", "value": "Moderate"}, {"measurement": "NEUTRAL RED DYE UPTAKE", "setting": "2.2.15 cells; 10 μg/ml", "value": "99 ± 2", "unit": "% OF CONTROL"}, {"measurement": "NEUTRAL RED DYE UPTAKE", "setting": "2.2.15 cells; 30 μg/ml", "value": "100 ± 1", "unit": "% OF CONTROL"}, {"measurement": "DNA Binding Constant", "setting": "calf thymus DNA", "value": "7.2e+07", "unit": "M⁻¹"}]}
{"smiles": "O=C(O)C1=CC(=C(c2ccc(O)c(C(=O)O)c2)c2ccc(O)c(C(=O)O)c2)C=CC1=O", "note": "[Aurintricarboxylic acid, reference compound]", "values": [{"measurement": "IC50", "setting": "[2]", "value": 3.36, "unit": "µM"}]}
